Data on eight compounds can be found in ChEMBL document CHEMBL3272113, “Inhibitors of the luteinizing hormone-releasing hormone based upon modifications in the 2, 3, and 6 positions” (J Med Chem, 1976).

Square brackets hold non-standard residues; d marks the D form. Peptide text beside a SMILES is read from it. pGlu = O=C1CC[C@@H](C(=O)O)N1

A short description of data set [1]: Retardation factor of the compound using 1-BuOH-AcOH-EtOAc-H2O at ratio of 1:1:1:1 as solvent system by thin layer chromatography. Type of data set: physicochemical.
Data set [2] in a line: Retardation factor of the compound using EtOH-H2O at ratio of 7:3 as solvent system by thin layer chromatography. In kind it is physicochemical.
Data set [3] can be described thus: Retardation factor of the compound using EtOAc-pyridine-AcOH-H2O at ratio of 5:5:1:3 as solvent system by thin layer chromatography. In kind it is physicochemical.
A short description of data set [4]: Retardation factor of the compound using 2-propanol-1N AcOH at ratio of 2:1 as solvent system by thin layer chromatography. In kind it is physicochemical.
Data set [5] can be described thus: Retardation factor of the compound using CHCl3-MeOH-concentrated NH4OH as solvent system by thin layer chromatography. Type of data set: physicochemical.
The target in data set [6] is Gonadotropin-releasing hormone receptor (Rattus norvegicus) (UniProt P30969). The data set is described as follows: Agonist activity at LH-RH receptor in rat pituitary gland assessed as change in FSH secretion at 100000 ng/ml.
Gonadotropin-releasing hormone receptor (Rattus norvegicus), sequence (P30969 whole entry, looked up): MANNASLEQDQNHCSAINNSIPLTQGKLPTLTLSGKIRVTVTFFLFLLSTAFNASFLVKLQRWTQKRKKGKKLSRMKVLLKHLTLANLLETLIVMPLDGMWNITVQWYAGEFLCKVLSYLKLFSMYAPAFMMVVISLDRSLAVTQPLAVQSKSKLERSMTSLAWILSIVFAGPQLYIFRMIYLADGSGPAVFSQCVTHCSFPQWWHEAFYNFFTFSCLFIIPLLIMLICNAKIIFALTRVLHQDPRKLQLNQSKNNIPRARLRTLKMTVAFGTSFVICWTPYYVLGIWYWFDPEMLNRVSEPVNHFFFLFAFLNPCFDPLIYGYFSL
For data set [7] the target is unchanged. The data set is described as follows: Antagonist activity at LH-RH receptor in rat pituitary gland assessed as inhibition of LH-RH-induced FSH release.
The target is the same in data set [8]. Description: Agonist activity at LH-RH receptor in rat pituitary gland assessed as change in luteinizing hormone secretion at 100000 ng/ml.
The target is the same in data set [9]. Description: Antagonist activity at LH-RH receptor in rat pituitary gland assessed as inhibition of LH-RH-induced luteinizing hormone release.
Data set [10] shares this target. The data set is described as follows: Antagonist activity at LH-RH receptor in rat pituitary gland assessed as inhibition of LH-RH-induced FSH release by measuring change in FSH level in medium at 10000 ng/ml.
The target is the same in data set [11]. Description: Antagonist activity at LH-RH receptor in rat pituitary gland assessed as inhibition of LH-RH-induced FSH release by measuring change in FSH level in medium at 100000 ng/ml.
For data set [12] the target is unchanged. The data set is described as follows: Antagonist activity at LH-RH receptor in rat pituitary gland assessed as inhibition of LH-RH-induced luteinizing hormone release by measuring change in LH level in medium at 10000 ng/ml.
Data set [13] has the same target. The data set is described as follows: Antagonist activity at LH-RH receptor in rat pituitary gland assessed as inhibition of LH-RH-induced luteinizing hormone release by measuring change in LH level in medium at 100000 ng/ml.
Data set [14] shares this target. Description: Antagonist activity at LH-RH receptor in rat pituitary gland assessed as inhibition of LH-RH-induced FSH release by measuring change in FSH level in medium at 1000 ng/ml.
For data set [15] the target is unchanged. Description: Antagonist activity at LH-RH receptor in rat pituitary gland assessed as inhibition of LH-RH-induced luteinizing hormone release by measuring change in LH level in medium at 1000 ng/ml.
Data set [16] can be described thus: Retardation factor of the compound using 1-BuOH-pyridine-AcOH-H2O at ratio of 30:20:6:24 as solvent system by thin layer chromatography. Type of data set: physicochemical.
Data set [17] relates to Gonadotropin-releasing hormone receptor. Description: Agonist activity at LH-RH receptor (unknown origin) relative to LH-RH.
The test system of data set [18] is Rattus norvegicus. Description: Induction of LH release in immature rat administered as infusion relative to LH-RH. Type of data set: functional.
Data set [19] has as its system Rattus norvegicus. Description: Induction of FSH release in immature rat administered as infusion relative to LH-RH. Type of data set: functional.

For `CC(C)C[C@H](NC(=O)[C@@H]1CCC(=O)N1)C(=O)N[C@H](C(=O)N[C@@H](CO)C(=O)N[C@@H](Cc1ccc(O)cc1)C(=O)N[C@H](C)C(=O)N[C@@H](CC(C)C)C(=O)N[C@@H](CCCNC(=N)N)C(=O)N1CCC[C@H]1C(=O)NCC(N)=O)C(C)C`, the Rf in data set [1] came out at 0.66; in [2] it was 0.62; in [3], 0.71; in data set [4], 0.57; in data set [5], 0.58. Also, the Activity in [6] was -185 ng/mL; in [8], -37 ng/mL; in data set [10], 3770 ng/mL; in data set [11] it was -399 ng/mL; in [12], 150 ng/mL; in [13], 13 ng/mL. For the same compound, the MED in [7] and in [9] was 100 µg/mL in each case.

Turning to `CC(C)C[C@H](NC(=O)[C@@H](NC(=O)[C@@H]1CCC(=O)N1)C(C)C)C(=O)N[C@@H](CO)C(=O)N[C@@H](Cc1ccc(O)cc1)C(=O)N[C@H](C)C(=O)N[C@@H](CC(C)C)C(=O)N[C@@H](CCCNC(=N)N)C(=O)N1CCC[C@H]1C(=O)NCC(N)=O`, the Rf in data set [1] was 0.66; in [2] it was 0.62; in data set [3] it was 0.71; in data set [4], 0.58; in [5], 0.58. In addition, the Activity in data set [6] was 158 ng/mL; in data set [8], -9 ng/mL; in data set [14], 6170 ng/mL; in data set [10], 1260 ng/mL; in data set [15] it was 246 ng/mL; in data set [12], 28 ng/mL. Also, the MED in data set [7] and in [9] was 10 µg/mL in each case.

Consider `CC(C)C[C@H](NC(=O)[C@@H]1CCC(=O)N1)C(=O)N[C@@H](CC(C)C)C(=O)N[C@@H](CO)C(=O)N[C@@H](Cc1ccc(O)cc1)C(=O)N[C@H](C)C(=O)N[C@@H](CC(C)C)C(=O)N[C@@H](CCCNC(=N)N)C(=O)N1CCC[C@H]1C(=O)NCC(N)=O`, for which the Rf in data set [1] is on record as 0.69; in [2], 0.63; in data set [3], 0.8; in data set [16] it was 0.59; in data set [4] it was 0.67. Also, the Activity in data set [6] came to 1690 ng/mL; in data set [8] it was 26 ng/mL; in data set [14], 9280 ng/mL; in [10] it was 2700 ng/mL; in data set [15], 460 ng/mL; in data set [12], 3 ng/mL. The MED in [7] and in data set [9] was 10 µg/mL in each case.

In data set [17], `CC(C)C[C@H](NC(=O)[C@@H](C)NC(=O)[C@H](Cc1ccc(O)cc1)NC(=O)[C@H](CO)NC(=O)[C@H](Cc1c[nH]c2ccccc12)NC(=O)[C@H](Cc1cnc[nH]1)NC(=O)[C@@H]1CCC(=O)N1)C(=O)N[C@@H](CCCNC(=N)N)C(=O)N1CCC[C@H]1C(=O)NCC(N)=O` showed an Activity of 300%.

Regarding `CC(C)C[C@H](NC(=O)[C@@H](C)NC(=O)[C@H](Cc1ccc(O)cc1)NC(=O)[C@H](CO)NC(=O)[C@@H](NC(=O)[C@@H](NC(=O)[C@@H]1CCC(=O)N1)C(C)C)C(C)C)C(=O)N[C@@H](CCCNC(=N)N)C(=O)N1CCC[C@H]1C(=O)NCC(N)=O`, the Rf in [1] was 0.64; in [2], 0.62; in data set [3], 0.7; in data set [4], 0.54; in data set [5] it was 0.53. Besides, the Activity was found to be 850 ng/mL in [6]; 17 ng/mL in data set [8]; 4810 ng/mL in [10]; 770 ng/mL in [11]; 313 ng/mL in data set [12]; 35 ng/mL in data set [13]. Besides, the MED in [7] and in [9] was 100 µg/mL in each case.

On to `CCNC(=O)[C@@H]1CCCN1C(=O)[C@H](CCCNC(=N)N)NC(=O)[C@H](CC(C)C)NC(=O)[C@@H](C)NC(=O)[C@H](Cc1ccc(O)cc1)NC(=O)[C@H](CO)NC(=O)[C@H](Cc1c[nH]c2ccccc12)NC(=O)[C@H](Cc1cnc[nH]1)NC(=O)[C@@H]1CCC(=O)N1`, for which the Activity in the data set with Rattus norvegicus [18] was determined as 1600%; in the data set on Rattus norvegicus [19], 1200%.

As to `CC(C)C[C@H](NC(=O)CNC(=O)[C@H](Cc1ccc(O)cc1)NC(=O)[C@H](CO)NC(=O)[C@H](Cc1c[nH]c2ccccc12)NC(=O)[C@@H]1CCC(=O)N1)C(=O)N[C@@H](CCCNC(=N)N)C(=O)N1CCC[C@H]1C(=O)NCC(N)=O` ([pGlu]WSYGLRPG-NH2), the MED in data set [7] and in data set [9] was 30 µg/mL in each case.

For `CC(C)C[C@H](NC(=O)CNC(=O)[C@H](Cc1ccc(O)cc1)NC(=O)[C@H](CO)NC(=O)[C@H](CC(C)C)NC(=O)[C@H](CC(C)C)NC(=O)[C@@H]1CCC(=O)N1)C(=O)N[C@@H](CCCNC(=N)N)C(=O)N1CCC[C@H]1C(=O)NCC(N)=O` ([pGlu]LLSYGLRPG-NH2), the MED in data set [7] and in data set [9] was 100 µg/mL throughout.
